Assay results: patent US6855730B2, “3-methylidenyl-2-indolinone modulators of protein kinase” (Sugen, Inc., priority 1998, dated 2005)
Counter-ions that a name gives are not always drawn.

Biological target: T1, chimeric receptor containing the EGFR extracellular domain and intracellular HER2 kinase domain (Homo sapiens, UniProt P04626)
T1 construct: fused on or other part: EGFR ectodomain + HER2 intracellular part, ATP-site indolinones: HER2's kinase
Test: EGF Receptor-HER2 chimeric receptor assay in whole cells (ELISA)
Type: cell-based
Conditions: read-out: HER-2 kinase IC50
Summary of the method: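 NIH3T3 cells overexpressing EGFR-extracellular/HER2-kinase chimera, seeded in 0.5% serum for ~40 h, were pretreated with compound (1% final DMSO) 2 h at 37 °C, then stimulated with 100 nM EGF for 5 min. Lysates captured on anti-EGFR plates; phosphotyrosine detected by anti-Ptyr/HRP ELISA at 410 nm as percent inhibition.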

T1 sequence (P04626 720-1255 limits assumed, change not shown): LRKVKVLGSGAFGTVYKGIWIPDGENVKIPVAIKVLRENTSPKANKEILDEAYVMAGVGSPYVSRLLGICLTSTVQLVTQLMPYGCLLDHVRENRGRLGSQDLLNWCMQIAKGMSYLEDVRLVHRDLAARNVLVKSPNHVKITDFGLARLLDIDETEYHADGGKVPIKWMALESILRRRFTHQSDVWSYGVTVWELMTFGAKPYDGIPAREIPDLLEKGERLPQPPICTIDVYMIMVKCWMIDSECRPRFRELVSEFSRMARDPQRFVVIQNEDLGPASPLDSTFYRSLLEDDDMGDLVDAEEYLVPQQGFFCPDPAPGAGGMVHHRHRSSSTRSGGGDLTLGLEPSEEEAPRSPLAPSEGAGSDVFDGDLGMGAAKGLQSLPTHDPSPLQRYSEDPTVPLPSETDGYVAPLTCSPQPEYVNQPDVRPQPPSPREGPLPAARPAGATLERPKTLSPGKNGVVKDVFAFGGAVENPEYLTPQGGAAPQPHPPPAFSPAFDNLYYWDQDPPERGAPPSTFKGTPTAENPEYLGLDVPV

| IC50 [µM] | Structure (SMILES) |
| --- | --- |
| 28 | COc1cc(C)c(/C=C2/C(=O)Nc3ccc(F)cc32)cc1C(C)C [Example 30, 5-Fluoro-3-(5-isopropyl-4-methoxy-2-methyl-benzylidene)-1,3-dihydroindol-2-one] |
| > 100 | Cc1c(/C=C2\C(=O)Nc3ccc(C(=O)O)cc32)[nH]c2ccccc12 [Example 156, 3-(3-Methyl-1H-indol-2-ylmethylene)-2-oxo-2,3-dihydro-1H-indole-5-carboxylic acid (piperidine salt)] |
| 53.6 | COc1ccc(/C=C2/C(=O)Nc3ccc(F)cc32)cc1C(C)C [Example 44, 5-Fluoro-3-(3-isopropyl-4-methoxybenzylidene)-1,3-dihydroindol-2-one] |
| > 100 | COc1ccc2c(c1)NC(=O)/C2=C/c1ccc(OC)c(-c2ccsc2)c1 [Example 64, 6-Methoxy-3-(4-methoxy-3-thiophen-3-ylbenzylidene)-1,3-dihydroindol-2-one] |
| 22.7 | O=C1Nc2ccc(Cl)cc2/C1=C\c1ccc2c(c1)CCO2 [Example 14, 5-Chloro-3-(2,3-dihydro-benzofuran-5-ylmethylene)-1,3-dihydroindol-2-one] |
| 59.9 | CCOc1cccc(-c2cc(C=C3C(=O)Nc4ccccc43)ccc2OC)c1 [Example 46, 3-(3′-Ethoxy-6-methoxybiphenyl-3-ylmethylene)-1,3-dihydroindol-2-one] |
| 22.5 | COc1ccc(/C=C2/C(=O)Nc3ccc(F)cc32)cc1-c1ccccc1 [Example 37, 5-Fluoro-3-(6-methoxybiphenyl-3-ylmethylene)-1,3-dihydroindol-2-one] |
| 12.9 | COc1ccc(/C=C2/C(=O)Nc3cc(NC(C)=O)ccc32)cc1-c1cccs1 [Example 31, N-[3-(4-Methoxy-3-thiophen-2-ylbenzylidene)-2-oxo-2,3-dihydro-1H-indol-6-yl]-acetamide] |
